Each compound was assayed on HBV (assay: HBV screening assay (viral DNA in baculovirus-HBV transduced HepG2 cells)). Conditions: Hepatitis B virus, HepG2, 72 h, read-out: EC50 (antiviral activity), HBV-transduced HepG2 cells, three days with compound, viral DNA by ELISA.
Type: cell-based
Experimental: HepG2 cells were transduced using a baculovirus to deliver the HBV genome essentially as previously described (Delaney et al. in Hepatology 1998; 28: 1134-1146). Transduced cells were cultured in supplemented EMEM media with 10% fetal bovine serum in a 5% CO2 incubator at 37° C. for three days in the presence of test compounds. The cells were lysed in a buffer containing 0.5% NP-40 and […] proteinase K. A solid-phase hybridization was performed to capture the viral DNA and to label the target DNA with Digoxigenin-labeled DNA probes. The viral DNA was detected by ELISA, using horseradish peroxidase-conjugated anti-digoxigenin antibodies.
The EC50 values were determined using ExcelFit software from the inhibition values of a titration curve for each compound. For CC50 determinations, the same titration of compounds was co-cultured with non-transduced HepG2 for three days under the conditions described above. The Promega CellTiter 96 Aqueous One Solution Cell Proliferation Assay was used to measure cell proliferation/viability. The CC50 values were determined using ExcelFit software from the inhibition values of the titration curve for each compound.

| Structure (SMILES) | EC50 [µM] |
| --- | --- |
| CC(C)(C)OC(=O)N1Cc2nc3sc(C(N)=O)c(N)c3c(-c3cccs3)c2C1 [Compound 1, 3-Amino-6-tert-butyloxycarbonyl-4-thiophen-2-yl-6,7-dihydro-5H-1-thia-6,8-diaza-s-indacene-2-carboxylic acid amide] | > 10 |
| NC(=O)c1sc2nc3c(c(-c4cccs4)c2c1N)CNC3 [Compound 2, 3-Amino-4-thiophen-2-yl-6,7-dihydro-5H-1-thia-6,8-diaza-s-indacene-2-carboxylic acidamide] | 1 to 10 |
| NC(=O)c1sc2nc3c(c(-c4cccs4)c2c1N)CN(CCCCl)C3 [Compound 3, 3-Amino-6-(3-chloro-propyl)-4-thiophen-2-yl-6,7-dihydro-5H-1-thia-6,8-diaza-s-indacene-2-carboxylic acid amide] | 1 to 10 |
| NC(=O)c1sc2nc3c(c(-c4cccs4)c2c1N)CN(CC1CCCCO1)C3 (centres unmarked) [Compound 4, 3-Amino-6-(tetrahydro-pyran-2-ylmethyl)-4-thiophen-2-yl-6,7-dihydro-5H-1-thia-6,8-diaza-s-indacene-2-carboxylic acid amide] | > 10 |
| COc1ccccc1-c1nc(CN2Cc3nc4sc(C(N)=O)c(N)c4c(-c4cccs4)c3C2)no1 [Compound 5, 3-Amino-6-[5-(2-methoxy-phenyl)-[1,2,4]oxadiazol-3-ylmethyl]-4-thiophen-2-yl-6,7-dihydro-5H-1-thia-6,8-diaza-s-indacene-2-carboxylic acid amide] | 1 to 10 |
| CC(C)CCN1Cc2nc3sc(C(N)=O)c(N)c3c(-c3cccs3)c2C1 [Compound 6, 3-Amino-6-(3-methyl-butyl)-4-thiophen-2-yl-6,7-dihydro-5H-1-thia-6,8-diaza-s-indacene-2-carboxylic aicd amide] | > 10 |
| NC(=O)c1sc2nc3c(c(-c4cccs4)c2c1N)CN(Cc1ccccn1)C3 [Compound 7, 3-Amino-6-pyridin-2-ylmethyl-4-thiophen-2-yl-6,7-dihydro-5H-1-thia-6,8-diaza-s-indacene-2-carboxylic acid amide] | > 10 |
| NC(=O)c1sc2nc3c(c(-c4cccs4)c2c1N)CN(CC1CC1)C3 [Compound 8, 3-Amino-6-cyclopropylmethyl-4-thiophen-2-yl-6,7-dihydro-5H-1-thia-6,8-diaza-s-indacene-2-carboxylic acid amide] | > 10 |
| NC(=O)c1sc2nc3c(c(-c4cccs4)c2c1N)CN(CCOC(=O)c1ccccc1)C3 [Compound 9, 3-Amino-6-(2-benzoyloxy-ethyl)-4-thiophen-2-yl-6,7-dihydro-5H-1-thia-6,8-diaza-s-indacene-2-carboxylic acid amide] | 1 to 10 |
| NC(=O)c1sc2nc3c(c(-c4cccs4)c2c1N)CN(CCc1ccccc1)C3 [Compound 10, 3-Amino-6-phenethyl-4-thiophen-2-yl-6,7-dihydro-5H-1-thia-6,8-diaza-s-indacene-2-carboxylic acid amide] | > 10 |
| NC(=O)c1sc2nc3c(c(-c4cccs4)c2c1N)CN(CC1CCCCC1)C3 [Compound 11, 3-Amino-6-cyclohexylmethyl-4-thiophen-2-yl-6,7-dihydro-5H-1-thia-6,8-diaza-s-indacene-2-carboxylic acid amide] | 1 to 10 |
| NC(=O)c1sc2nc3c(c(-c4cccs4)c2c1N)CN(CC(=O)c1ccc(Cl)cc1)C3 [Compound 12, 3-Amino-6-[2-(4-chloro-phenyl)-2-oxo-ethyl]-4-thiophen-2-yl-6,7-dihydro-5H-1-thia-6,8-diaza-s-indacene-2-carboxylic acidamide] | 1 to 10 |
| CC(CO)CN1Cc2nc3sc(C(N)=O)c(N)c3c(-c3cccs3)c2C1 (centres unmarked) [Compound 13, 3-Amino-6-(3-hydroxy-2-methyl-propyl)-4-thiophen-2-yl-6,7-dihydro-5H--thia-6,8-diaza-s-indacene-2-carboxylic acid amide] | 1 to 10 |
| CC(C)CN1Cc2nc3sc(C(N)=O)c(N)c3c(-c3cccs3)c2C1 [Compound 14, 3-Amino-6-isobutyl-4-thiophen-2-yl-6,7-dihydro-5H-1-thia-6,8-diaza-s-indacene-2-carboxylic acid amide] | > 10 |
| NC(=O)c1sc2nc3c(c(-c4cccs4)c2c1N)CN(CCO)C3 [Compound 15, 3-Amino-6-(2-hydroxy-ethyl)-4-thiophen-2-yl-6,7-dihydro-5H-1-thia-6,8-diaza-s-indacene-2-carboxylic acid amide] | 1 to 10 |
| CCCCCN1Cc2nc3sc(C(N)=O)c(N)c3c(-c3cccs3)c2C1 [Compound 16, 3-Amino-6-pentyl-4-thiophen-2-yl-6,7-dihydro-5H-1-thia-6,8-diaza-s-indacene-2-carboxylic acid amide] | > 10 |

| Structure (SMILES) | EC50 [µM] |
| --- | --- |
| COCCN1Cc2nc3sc(C(N)=O)c(N)c3c(-c3cccs3)c2C1 [Compound 17, 3-Amino-6-(2-methoxy-ethyl)-4-thiophen-2-yl-6,7-dihydro-5H-1-thia-6,8-diaza-s-indacene-2-carboxylic acid amide] | > 10 |
| CCOC(=O)CN1Cc2nc3sc(C(N)=O)c(N)c3c(-c3cccs3)c2C1 [Compound 18, 3-Amino-6-carbethoxymethyl-4-thiophen-2-yl-6,7-dihydro-5H-1-thia-6,8-diaza-s-indacene-2-carboxylic acid amide] | > 10 |
| NC(=O)c1sc2nc3c(c(-c4cccs4)c2c1N)CN(CCN1C(=O)c2ccccc2C1=O)C3 [Compound 19, 3-Amino-6-[2-(1,3-dioxo-1,3-dihydro-isoindol-2-yl)-ethyl]-4-thiophen-2-yl-6,7-dihydro-5H-1-thia-6,8-diaza-s-indacene-2-carboxylic acid amide] | > 10 |
| NC(=O)c1sc2nc3c(c(-c4cccs4)c2c1N)CN(Cc1cccnc1)C3 [Compound 20, 3-Amino-6-pyridin-3-ylmethyl-4-thiophen-2-yl-6,7-dihydro-5H-1-thia-6,8-diaza-s-indacene-2-carboxylic acid amide] | < 1 |
| NC(=O)c1sc2nc3c(c(-c4cccs4)c2c1N)CN(Cc1ccccc1)C3 [Compound 21, 3-Amino-6-benzyl-4-thiophen-2-yl-6,7-dihydro-5H-1-thia-6,8-diaza-s-indacene-2-carboxylic acid amide] | 1 to 10 |
| Cc1ccccc1CN1Cc2nc3sc(C(N)=O)c(N)c3c(-c3cccs3)c2C1 [Compound 22, 3-Amino-6-(2-methyl-benzyl)-4-thiophen-2-yl-6,7-dihydro-5H-1-thia-6,8-diaza-s-indacene-2-carboxylic acid amide] | 1 to 10 |
| NC(=O)c1sc2nc3c(c(-c4cccs4)c2c1N)CN(Cc1cccc(F)c1)C3 [Compound 23, 3-Amino-6-(3-fluoro-benzyl)-4-thipohen-2-yl-6,7-dihydro-5H-1-thia-6,8-diaza-s-indacene-2-carboxylic acid amide] | > 10 |
| COc1cc(CN2Cc3nc4sc(C(N)=O)c(N)c4c(-c4cccs4)c3C2)cc(OC)c1 [Compound 24, 3-Amino-6-(3,5-dimethoxy-benzyl)-4-thiophen-2-yl-6,7-dihydro-5H-1-thia-6,8-diaza-s-indacene-2-carboxylic acid amide] | > 10 |
| NC(=O)c1sc2nc3c(c(-c4cccs4)c2c1N)CN(CCCN1CCN(c2ncccn2)CC1)C3 [Compound 25, 3-Amino-6-[3-(4-pyrimidin-2-yl-piperazin-1-yl)-propyl]-4-thiophen-2-yl-6,7-dihydro-5H-1-thia-6,8-diaza-s-indacene-2-carboxylicacid amide] | > 10 |
| COC1CCCCN1CCCN1Cc2nc3sc(C(N)=O)c(N)c3c(-c3cccs3)c2C1 (centres unmarked) [Compound 26, 3-Amino-6-[3-(2-methoxy-piperidin-1-yl)-propyl]-4-thiophen-2-yl-6,7-dihydro-5H-1-thia-6,8-diaza-s-indacene-2-carboxylic acidamide] | > 10 |
| NC(=O)c1sc2nc3c(c(-c4cccs4)c2c1N)CN(CCCN1CCOCC1)C3 [Compound 27, 3-Amino-6-(3-morpholin-4-yl-propyl)-4-thiophen-2-yl-6,7-dihydro-5H-1-thia-6,8-diaza-s-indacene-2-carboxylic acid amide] | > 10 |
| CC(O)CNCCCN1Cc2nc3sc(C(N)=O)c(N)c3c(-c3cccs3)c2C1 (centres unmarked) [Compound 28, 3-Amino-6-[3-(2-hydroxy-propylamino)-propyl]-4-thiophen-2-yl-6,7-dihydro-5H-1-thia-6,8-diaza-s-indacene-2-carboxylic acidamide] | > 10 |
| NC(=O)c1sc2nc3c(c(-c4cccs4)c2c1N)CCNC3 [Compound 29, 3-Amino-4-thiophen-2-yl-5,6,7,8-tetrahydro-1-thia-7,9-diaza-cyclopenta[b]naphthalene-2-carboxylic acidamide] | < 1 |
| CC(C)(C)OC(=O)N1CCc2c(nc3sc(C(N)=O)c(N)c3c2-c2cccs2)C1 [Compound 30, 3-Amino-7-tert-butyloxycarbonyl-4-thiophen-2-yl-5,6,7,8-tetrahydro-1-thia-7,9-diaza-cyclopenta[b]naphthalene-2-carboxylic acid amide] | > 10 |
| CC(C)(C)OC(=O)N1CCc2nc3sc(C(N)=O)c(N)c3c(-c3cccs3)c2C1 [Compound 32, 3-Amino-6-tert-butyloxycarbonyl-4-thiophen-2-yl-5,6,7,8-tetrahydro-thieno[2,3-b][1,6]naphthyridine-2-carboxylic acidamide] | > 10 |
| Cc1ccc(-c2c3c(nc4sc(C(N)=O)c(N)c24)CCN(Cc2ccccc2)C3)o1 [Compound 33, 3-Amino-6-benzyl-4-(5-methyl-furan-2-yl)-5,6,7,8-tetrahydro-thieno[2,3-b][1,6]naphthyridine-2-carboxylic acidamide] | > 10 |

Source: US20090029983A1, “NOVEL HETEROCYCLIC COMPOUNDS HAVING ANTI-HBV ACTIVITY” (priority 2005, published 2009)
